Values quoted from earlier work as cited in US7105537B2, “2-substituted cyclic amines as calcium sensing receptor modulators” (Bristol-Myers Squibb Company, priority 2003, dated 2006).

Experiments:
[1] = test system: osteopenic ovariectomized (OVX) rats; conditions: oral administration, in the presence of an anti-resorptive agent
[2] = intravenous bolus injection
postmenopausal women = conditions: placebo-controlled trial

Row | Compound | bone mass [1] | serum PTH [2] | reduction of the risk of non-traumatic, non-spine fractures (postmenopausal women) [%] | reduction of the risk of spine fractures (postmenopausal women) [%]
1 | CC(C)(Cc1ccc2ccccc2c1)NC[C@@H](O)COc1cccc(Cl)c1C#N [NPS-2143] | increase in bone mas | transient increase in serum PTH | – | –
2 | PTH peptide fragment (1–34): "the PTH peptide fragment (1–34) was shown to reduce the risk of spine fractures and non-traumatic, non-spine fractures" (SVSEIQLMHNLGKHLNSMERVEWLRKKLQDVHNF; Parathyroid hormone; UniProt P01270 32-65, looked up, fragment) | – | – | 54 | 65
